For assay [1], the system named is experimental allergic encephalomyelitis (EAE) in (SJL/JxBALB/c)FI mice. The experiment in a line: Blocking of experimental allergic encephalomyelitis (EAE) by injection with complete adjuvant. It is filed as in vivo, mouse. The conditions noted are these: for Incidence of EAE: antigen included in the encephalitogenic inoculum, animals with EAE/animals; for % Blocking: blocking of EAE vs control inoculum; for Mean Score: disease score 0 (healthy) to 5 (dead); for Mean Onset: animals not protected, onset = day of disease score of at least 1. The source says: Blocking of Experimental Allergic Encephalomyelitis—To test the physiological activity of TV-markers, protection from experimental allergic encephalomyelitis (EAE) was investigated in mice. Injection of Copolymer 1 in complete Freund's adjuvant together with the encephalitogen can block EAE essentially as described in Aharoni et al., 17 EUR. J. IMMUNOL. 23 (1993). Other researchers have observed that the therapeutic effect of Copolymer 1 in multiple sclerosis patients is also associated with the induction of TH2 cells. Lahat et al., 244 J. NEUROL. 129 (1997). In this example, EAE is blocked by different polypeptides of the present invention.
Pertussis toxin (0.25 ml, 250 ng, Sigma) is injected intravenously, immediately after and 48 hr later. […] 2156 (1979).
EAE blocking by injection with complete adjuvant—Each antigen being tested was included in the encephalitogenic inoculum. […] Also shown is the mean onset of EAE in animals which were not protected. Disease intensity is scored daily in mice with a score of zero (0=healthy) to five (5=dead).

The test system of assay [2] is anti-Cop-1 (3-3-9) monoclonal antibody. The experiment in a line: RIA: binding of anti-Cop 1 monoclonal antibody to coated antigen. The conditions noted are these: relative to Cop 1 reference standard; 2 µg/ml coating antigen.
Assay [3] relates to anti-Cop-1 (3-1-45) monoclonal antibody. The assay is described as above. The conditions noted are these: relative to Cop 1 reference standard; 2 µg/ml coating antigen.
In assay [4] the test system is anti-Cop-1 (5-7-2) monoclonal antibody. The description is as above. The note with it: relative to Cop 1 reference standard; 2 µg/ml coating antigen.
Assay [5] concerns BALB/c-Ts-Cop-1 T cell line. The experiment in a line: Proliferation of Cop 1 specific T cell line (3H-thymidine uptake). The note with it: 10 µg antigen; relative to Cop 1.
The test system of another assay is L-22-1 T cell clone. Described as above. The note with it: 10 µg antigen; relative to Cop 1.
For assay [6], the system named is SC-103 human Cop 1 specific T cell clone. The description is as above. The conditions noted are these: 10 µg antigen; relative to Cop 1.

Regarding “glatiramer acetate [compound 55396, reference compound]”, in assay [1], the “Incidence of EAE” value is given as 0/10, the “% Blocking” value was determined as 100% and the “Mean Score” value is on record as 0. Further, the “Binding of mAb anti-Cop-1 (3-3-9), % Cop1 binding” value (from here on “Binding … (3-3-9), % Cop1 binding”) in assay [2] came to 90%. Moreover, the “Binding of mAb anti-Cop-1 (3-1-45), % Cop1 binding” value (shortened to “Binding … (3-1-45), % Cop1 binding”) in assay [3] was determined as 85%. For the same molecule, the “Binding of mAb anti-Cop-1 (5-7-2), % Cop1 binding” value (“Binding … (5-7-2), % Cop1 binding” for short) in assay [4] was 86%. For the same molecule, the “3H-Thymidine incorporation, % Cop1, BALB/c-Ts-Cop-1” value in assay [5] is recorded as 105%. The “3H-Thymidine incorporation, % Cop1, L-22-1” value in the assay with L-22-1 T cell clone was determined as 105%. Moreover, the “3H-Thymidine incorporation, % Cop1, SC-103” value in assay [6] turned out to be 80%.

“AKKYAKKEKAAKKAYKKEAKAKAAEAAAKEAAYEA [TV-35]”: the “Binding … (3-3-9), % Cop1 binding” value in assay [2] is recorded as 0%. Also, the “Binding … (3-1-45), % Cop1 binding” value in assay [3] is reported as 0%. For the same molecule, the “Binding … (5-7-2), % Cop1 binding” value in assay [4] is given as 1%. For the same molecule, in assay [5], the “3H-Thymidine incorporation, % Cop1, BALB/c-Ts-Cop-1” value was 28%. Besides, the “3H-Thymidine incorporation, % Cop1, L-22-1” value in the assay with L-22-1 T cell clone is listed as 0%. Moreover, in assay [6], the “3H-Thymidine incorporation, % Cop1, SC-103” value is given as 0%.

“AKKYAKKEKAYAKKAEKAAKKAEAKAYKAAEAKKKAEAKYKAEAAKAAAKEAAYEA [TV-56]”: the “Binding … (3-3-9), % Cop1 binding” value in assay [2] was 2%. Moreover, in assay [3], the “Binding … (3-1-45), % Cop1 binding” value was found to be 6%. In addition, the “Binding … (5-7-2), % Cop1 binding” value in assay [4] is 91%. The “3H-Thymidine incorporation, % Cop1, BALB/c-Ts-Cop-1” value in assay [5] is 59%. Also, the “3H-Thymidine incorporation, % Cop1, L-22-1” value in the assay on L-22-1 T cell clone is 0%. Besides, the “3H-Thymidine incorporation, % Cop1, SC-103” value in assay [6] turned out to be 0%.

“glatiramer acetate [compound 03494, reference compound]”: in assay [1], the “Incidence of EAE” value is on record as 0/10, the “% Blocking” value was determined as 100% and the “Mean Score” value worked out at 0.

On to “glatiramer acetate [compound 55296, reference compound]”, for which the “Binding … (3-3-9), % Cop1 binding” value in assay [2] is 91%. In assay [3], the “Binding … (3-1-45), % Cop1 binding” value is on record as 83%. Also, the “Binding … (5-7-2), % Cop1 binding” value in assay [4] came out at 82%. In addition, the “3H-Thymidine incorporation, % Cop1, BALB/c-Ts-Cop-1” value in assay [5] stood at 110%. Besides, the “3H-Thymidine incorporation, % Cop1, L-22-1” value in the assay with L-22-1 T cell clone amounted to 106%. Besides, in assay [6], the “3H-Thymidine incorporation, % Cop1, SC-103” value stood at 81%.

Turning to “AKKYAKKAKAEKAKKAYKAAEAKKAAKYEKAAAEKAAAKEAAYEA [TV-45]”, in assay [1], the “Incidence of EAE” value is recorded as 0/10 and the “% Blocking” value is 100%.

B1: AKKYAKKEKAYAKAKKAEAKAAKKAKAEAKKYAKAAKAEKKEYAAAEAKYKAEAAKAAAKEAAYEA (peptide)
chain: AKKYAKKEKAYAKAKKAEAKAAKKAKAEAKKYAKAAKAEKKEYAAAEAKYKAEAAKAAAKEAAYEA
In the case of B1, in assay [1], the “Mean Onset” value was 11.7 days, the “Incidence of EAE” value was 6/10 and the “% Blocking” value was determined as 40%.

B2: AKKYAKKEKAYAKKAEKAAKKAEAKAYKAAEAKKKAKAEAKKYAKAAKAEKKEYAAAEAKYKAEAAKAAAKEAAYEA (peptide)
chain: AKKYAKKEKAYAKKAEKAAKKAEAKAYKAAEAKKKAKAEAKKYAKAAKAEKKEYAAAEAKYKAEAAKAAAKEAAYEA
Regarding B2, in assay [1], the “Mean Onset” value is on record as 14.0 days, the “Incidence of EAE” value was 1/9 and the “% Blocking” value is reported as 89%. In assay [2], the “Binding … (3-3-9), % Cop1 binding” value stood at 6%. Also, the “Binding … (3-1-45), % Cop1 binding” value in assay [3] was found to be 9%. In addition, the “Binding … (5-7-2), % Cop1 binding” value in assay [4] is reported as 37%. In addition, the “3H-Thymidine incorporation, % Cop1, BALB/c-Ts-Cop-1” value in assay [5] stood at 52%. Further, the “3H-Thymidine incorporation, % Cop1, L-22-1” value in the assay with L-22-1 T cell clone was determined as 1%. Also, in assay [6], the “3H-Thymidine incorporation, % Cop1, SC-103” value is given as 0%.

B3: AKKYAKKEKAYAKKAEKAAKKAEAKAYKAAEAKKKAKAEAKKYAKAAKAEKKEYAAAEAKYKAEAAKKAYKAEAAKAAAKEAAYEA (peptide)
chain: AKKYAKKEKAYAKKAEKAAKKAEAKAYKAAEAKKKAKAEAKKYAKAAKAEKKEYAAAEAKYKAEAAKKAYKAEAAKAAAKEAAYEA
Consider B3, for which, in assay [1], the “Mean Onset” value is on record as 12.0 days, the “Incidence of EAE” value is recorded as 3/10 and the “% Blocking” value is 70%. In addition, the “Binding … (3-3-9), % Cop1 binding” value in assay [2] is 2%. In assay [3], the “Binding … (3-1-45), % Cop1 binding” value came out at 6%. In addition, the “Binding … (5-7-2), % Cop1 binding” value in assay [4] was determined as 76%. In addition, the “3H-Thymidine incorporation, % Cop1, BALB/c-Ts-Cop-1” value in assay [5] is reported as 44%. Further, in the assay on L-22-1 T cell clone, the “3H-Thymidine incorporation, % Cop1, L-22-1” value was found to be 1%. Further, the “3H-Thymidine incorporation, % Cop1, SC-103” value in assay [6] came to 0%.

B4: AKKYAKKAEKAYAKKAKAAKEKKAYAKKEAKAYKAAEAKKKAKAEAKKYAKEAAKAKKEAYKAEAKKYAKAAKAEKKEYAAAEAKKAEAAKAYKAEAAKAAAKEAAYEA (peptide)
chain: AKKYAKKAEKAYAKKAKAAKEKKAYAKKEAKAYKAAEAKKKAKAEAKKYAKEAAKAKKEAYKAEAKKYAKAAKAEKKEYAAAEAKKAEAAKAYKAEAAKAAAKEAAYEA
notes: reversed-phase fraction 2 designated TV-109
As to B4, in assay [1], the “Incidence of EAE” value is given as 0/10 and the “% Blocking” value was determined as 100%.

(Values after patent US7615359B2, “Copolymer 1 related polypeptides for use as molecular weight markers and for therapeutic use” (Yeda Research and Development Co., Ltd., priority 1998, dated 2009).)
